Assays:
[1] = test system: thioredoxin; settings: donor; NAC (10 mM) alone
[2] = test system: thioredoxin reductase (TrxR); settings: donor
Description: A volume corresponding to 50 μg of proteins of each cell extract is incubated with a mixture of HEPES, 80 mM pH 7.5, 0.9 mg/ml of NADPH, EDTA 6 mM, 2 mg/ml of insulin and 10 μM of Trx of E. coli, at 37° C. for 20 minutes in a final volume of 120 μL. The reaction is stopped by the addition of 500 μL of DTNB (dithio-bis-nitrobenzoic acid) (0.4 mg/ml) in guanidine hydrochloride 6 M/Tris-Cl 0.2 M (pH 8.0). A control sample containing everything except the Trx is incubated and treated in the same way as each sample.
The absorbance at 412 nm is measured and the value of the control subtracted from the value of the corresponding absorbance of the sample.
A standard curve is prepared using TrxR from purified calf thymus, with a defined specific activity.

[3] = test system: glycated proteins; assay: Reduction in glycated proteins in treated cells; format: cell-based

**Q.** With `CC(=O)N[C@@H](CS)C(=O)O` [NAC, N-Acetyl-cysteine] as the compound, how does the “Thioredoxin Level” value [1] read?
**A.** Its value is 59.8 ± 8.1 ng of Trx/mg of total proteins.

**Q.** And the “Thioredoxin level, % change vs control” value [1]?
**A.** The value was −32%.

**Q.** Which results are given for `C=CC=O` [Acrolein]?
**A.** TrxR activity, % change vs control ([2]; Acrolein 25 μM alone): −37%; TrxR Activity ([2]; Acrolein 25 μM in the culture medium, alone): 130.8 ± 11.4 ng of TrxR/mg of total proteins

**Q.** How did the “content required to inhibit 50% of the formation of glycated proteins in the cells” value [3] turn out when `COc1cc(/C=C/C(=O)O)ccc1O` [arginine ferulate] was run?
**A.** The value was 0.005%-0.02%.

From patent publication US8017128B2, “Cosmetic active ingredient composed of arginine ferrulate and a microalgae extract and its uses” (priority 2006, dated 2011)
